Experimental data as given in PubChem BioAssay (NCI).
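Compound exposure: 48 hours, 5 concentrations, 96-well plates. TGI: total growth inhibition.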

Assays:
Experiment in all cases: inhibition of tumour cell growth, NCI panel, 48 h
SR leukemia = tested on: SR leukemia
SK-MEL-28 melanoma = tested on: SK-MEL-28 melanoma
EKVX NSCLC = tested on: EKVX NSCLC
U251 CNS = tested on: U251 CNS
UO-31 renal = tested on: UO-31 renal
NCI-H522 lung = tested on: NCI-H522 lung
CAKI-1 renal = tested on: CAKI-1 renal
HOP-92 NSCLC = tested on: HOP-92 NSCLC
A498 renal = tested on: A498 renal
MDA-MB-231 breast = tested on: MDA-MB-231 breast
NCI-H23 lung = tested on: NCI-H23 lung
SF-539 CNS = tested on: SF-539 CNS
HOP-62 NSCLC = tested on: HOP-62 NSCLC
786-0 renal = tested on: 786-0 renal
SN12C renal = tested on: SN12C renal
MALME-3M melanoma = tested on: MALME-3M melanoma
HCT-116 colon = tested on: HCT-116 colon
CCRF-CEM leukemia = tested on: CCRF-CEM leukemia
BT-549 breast = tested on: BT-549 breast

SMILES | TGI (SR leukemia) [µM] | TGI (SK-MEL-28 melanoma) [µM] | TGI (EKVX NSCLC) [µM] | TGI (U251 CNS) [µM] | TGI (UO-31 renal) [µM] | TGI (NCI-H522 lung) [µM] | TGI (CAKI-1 renal) [µM] | TGI (HOP-92 NSCLC) [µM] | TGI (A498 renal) [µM] | TGI (MDA-MB-231 breast) [µM] | TGI (NCI-H23 lung) [µM] | TGI (SF-539 CNS) [µM] | TGI (HOP-62 NSCLC) [µM] | TGI (786-0 renal) [µM] | TGI (SN12C renal) [µM] | TGI (MALME-3M melanoma) [µM] | TGI (HCT-116 colon) [µM] | TGI (CCRF-CEM leukemia) [µM] | TGI (BT-549 breast) [µM]
CCOC(=O)C1C(c2ccc(O)c(OC)c2)c2c([nH][nH]c2=O)CC1(C)O (centres undefined) | > 100 | > 100 | > 100 | > 100 | > 100 | > 100 | > 100 | > 100 | > 100 | > 100 | > 100 | > 100 | > 100 | > 100 | > 100 | > 100 | > 100 | > 100 | –
NC(=O)C(=CNC(=S)Nc1ccc(Cl)c(Cl)c1)C(N)=O | > 100 | > 100 | > 100 | > 100 | > 73.6 | 72.3 | > 100 | > 100 | > 100 | > 100 | > 100 | > 100 | > 100 | > 100 | > 100 | > 100 | > 100 | > 100 | –
CC(=O)OC12c3ccccc3-c3ccccc3C1C(C(=O)O)C2(Cl)C(=O)O (centres undefined) | > 10 | > 10 | > 10 | > 10 | > 10 | > 10 | > 10 | > 10 | > 10 | > 10 | > 10 | > 10 | > 10 | > 10 | > 10 | > 10 | – | > 10 | –
COC(CC1(/C=C/O[Si](C(C)C)(C(C)C)C(C)C)C(=O)N(COCC[Si](C)(C)C)c2ccccc21)OC (centres undefined) | > 100 | 60 | – | > 100 | > 100 | 23.6 | > 100 | 60 | > 100 | > 100 | > 100 | 58.7 | > 100 | > 100 | > 100 | – | 71.6 | > 100 | –
O=c1oc2ccccc2c(O)c1/C=N/C(=S)NCc1ccccc1 | – | > 100 | > 100 | > 100 | > 100 | – | 63.7 | > 100 | – | > 100 | > 100 | > 100 | > 100 | > 100 | > 100 | – | > 100 | – | 41.5
O=C(Nc1nc(C23CC4CC(CC(C4)C2)C3)cs1)c1cc2cc(Cl)ccc2oc1=O | > 100 | > 100 | > 100 | > 100 | > 100 | > 100 | > 100 | > 100 | > 100 | > 100 | > 100 | > 100 | > 100 | > 100 | > 100 | > 100 | > 100 | > 100 | –
Nn1c(CCCCCCCCc2nnc(COc3ccccc3)n2N)nnc1COc1ccccc1 | – | > 100 | > 100 | > 100 | > 100 | > 100 | > 100 | > 100 | > 100 | > 100 | > 100 | – | > 100 | > 100 | > 100 | > 100 | > 100 | – | > 100
CCCCc1ccc(-n2sc3ncc([N+](=O)[O-])cc3c2=O)cc1 | 45.9 | 50.7 | 29.8 | 29.1 | 35.5 | 9.36 | 26.2 | – | – | 23.5 | 24.1 | 39.7 | 36.7 | 28.2 | 32.7 | 21.7 | 21 | 32.4 | 33.9
CC1CCCCN1CC(=O)c1ccc2c(c1)Sc1ccccc1O2 (centres undefined) | 47.8 | 33.1 | 28.7 | 31.9 | 25.7 | – | 37.5 | 30.5 | 38.6 | 54.6 | 30.3 | 34 | 30.7 | 31.9 | 37.9 | 26.8 | 30.7 | 44.4 | –
CSc1cc(Br)ccc1-n1c(C(=O)c2ccccc2)c(SC)n(-c2ccccc2)c1=O | > 100 | > 100 | > 100 | > 100 | > 100 | > 100 | > 100 | > 100 | – | > 100 | > 100 | > 100 | > 100 | > 100 | > 100 | – | > 100 | – | > 100
N=C(N)SCc1cc(Cl)cc(Cl)c1O | – | 46.4 | 42.8 | 30 | 32.4 | 33.4 | 33.3 | 35.1 | 51.7 | 30.5 | 40.4 | 22.1 | 38 | 32.2 | 36.6 | 72.7 | 29.8 | 35.6 | 36.6
COC(=O)c1ccc(NCc2c(O)ccc(O)c2Br)cc1Cl | – | 30.7 | 28.5 | 30.4 | 29.8 | 3.51 | 29.9 | 28.4 | > 100 | 29.4 | 32.9 | 30.4 | – | 32.6 | 25.7 | 33.2 | 33.3 | > 100 | 24.7
O=c1c2ccccc2nc2n1C(c1ccc([N+](=O)[O-])cc1)C2(c1ccccc1)c1ccccc1 (centres undefined) | – | > 100 | > 100 | > 100 | – | > 100 | > 100 | > 100 | > 100 | > 100 | > 100 | > 100 | > 100 | > 100 | > 100 | > 100 | > 100 | > 100 | > 100
COC(=O)C1(C(=O)OC)N=C(C)OC1c1ccccn1 (centres undefined) | > 100 | > 100 | > 100 | > 100 | > 100 | – | > 100 | > 100 | > 100 | – | > 100 | – | > 100 | > 100 | > 100 | – | > 100 | > 100 | > 100
